In patent US8057829B2, “Methods for repelling insects using sesquiterpene hydrocarbons and their derivatives” (Sterling International Inc., priority 2008, dated 2011):

Columns and labels:
[1] = tested on: Aedes Aegypti, Anopheles stephensi and the sand fly P. papatasi; assay: Y-tube bioassay, statements pooled for the three species; assay type: in vivo, Aedes aegypti; Anopheles stephensi; Phlebotomus papatasi; settings: clove oil ca. 10 mg/day, patchouli oil 15 mg/d, sesquiterpenes 1 to 35 mg/d release
Protocol: Aegypti and An. stephensi, and one species of sand fly, P. papatasi. Both the mosquitoes and the sand flies used in the study were from colonies maintained at the Walter Reed Army Institute of Research, Department of Entomology, Silver Spring, Md. This Y-tube bioassay system, equipped with CO2-enriched air (ca. 1 l/min) as an attractant, was made from three clear acrylic tubes (4″ diameter; 12″ length) with symmetrical 120° angles among the three tube arms; and a screen butterfly valve on the top part of the bottom releasing tube. These spatial repellency tests were carried out during 8:00 am-12:00 pm (photophase) time period for Ae. aegypti and 1:00-5:00 pm (shifted scotophase) time period for the species of night-flying mosquitoes and sand fly in a temperature and humidity controlled testing room (23-25° C. and 20-40% RH). Female mosquitoes or sand flies were stored at ˜25-26° C., 50-89% RH, 12:12 hr. (L/D), fed with 10% sucrose solution before testing. The candidate chemical (individual or mixture) dispenser and a blank control were placed in the upper left or right arm of the Y-tube before releasing 25-40, 6 to 10 day-old female mosquitoes (or 3 to 10 day-old sand flies) into the bottom tube via a small hole. After a 30-60 sec acclimation period, the butterfly screen valve (door) on the top of the bottom tube was opened. After 10 min., the valve was closed and the numbers of mosquitoes or sand flies in each arm (including the bottom tube) were counted. In order to minimize the position effect, the same experiment was repeated once with the treatment and blank control arms shifted using a new (clean) Y-tube olfactometer and a new batch of mosquitoes/sand flies. Data from these two replicates were pooled for χ2 goodness of fit test (df=1) between the treatment and blank control.

houseflies = assay: Laboratory sticky trap bioassay of spatial repellency with egg powder attractant; assay type: in vivo, housefly (Musca domestica); settings: for female house flies per trap / male house flies per trap: egg powder plus repellent; for repellency against houseflies, in words: laboratory trap bioassay with egg powder attractant
Protocol: Laboratory bioassay tests were carried out to investigate the efficacy of some of the EAD-active compounds described above to act as spatial repellents against several insects. The procedure for the bioassay tests is described in Example 2 below. Briefly stated, the bioassay included using egg powder (EP) as an attractant for flies, while the compound whose insect repellency was being tested was placed in proximity to the egg powder. In FIGS. 11-13, the bioassay was carried out on houseflies using devices known by the designation Trécé Pherocon® VI sticky traps.
The following lab bioassay tests were employed to illustrate the efficacy of the compounds to effectively act as spatial repellents for flies. Three sets of tests were conducted in a fly testing room (23° C., 70% RH, and 12/12 (L/D) light regime illuminated by fluorescent lights). Two sets of tests were carried out using Trécé Pherocon® VI traps with sticky inserts, which were set up on poles evenly spaced on a rotating table. The traps were ca. 1 m above a table surface, and ca. 1 m apart from each other. Two grams of egg powder in a white cap (4 cm in diameter, 0.5 cm in height) used as an attractant was put on the center of the sticky insert in the sticky trap. The potential repellent candidate chemicals were loaded into polyethylene bags, and were hung under the inner roof of the traps, 1-1.5 cm above the egg powder attractant. A control had the empty white cap and blank polyethylene bag, while the positive control had only the egg powder and an empty polyethylene bag. The test table was rotated 1.5 r.p.h. […] About 200-300 houseflies (2-3 days old) were released into the testing room for each test. Tests were normally run from 8:00 am to 5:00 pm, and the numbers of houseflies caught in each trap were counted after each test. The results of these tests are shown in FIGS. 11-13 and described above.

Anopheles stephensi = assay: K&D module behavioral bioassay (topical repellency, biting); assay type: in vivo
Outline: (§1)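 In vitro six-cell K&D module over 38 °C CPDA+ATP artificial blood under collagen membrane, topped by nylon organdy treated with five ethanol dilutions of test chemical (ethanol blank; DEET ca. 10 μg/cm^2 positive control). Five starved (24 h) 5–10 d-old females per cell. Biting counted over 3 min, three replicates per chemical and species.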

Aedes aegypti [2] = assay: as above; assay type: in vivo
Outline: as §1

Aedes aegypti [3] = assay: Y-tube olfactometer behavioral bioassay (spatial repellency); assay type: in vivo; settings: for Number of mosquitoes in each arm: Blank / Number of mosquitoes in each arm: Bottom / Number of mosquitoes in each arm: Repellent: Aedes aegypti females, release rate per chemical (1-60 mg/day), 10 min; for Number of mosquitoes in each arm: Repellent: two replicates pooled; for SAI (Spatial Activity Index): Aedes aegypti, (Nc − Nt)/(Nc + Nt), −1 to 1, zero indicating no response
Outline: (§2)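 Female insects (25-40 per run; mosquitoes 6-10 days old, sand flies 3-10 days) released into a CO2-baited Y-tube holding a treatment dispenser in one arm and a blank in the other; arm counts taken after 10 min at 23-25° C. Arms swapped in a repeat run; pooled data tested by χ2 (df=1).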

Phlebotomus papatasi = assay: as above; assay type: in vivo; settings: for SAI (Spatial Activity Index): Phlebotomus papatasi; for Number of mosquitoes in each arm: Repellent: Phlebotomus papatasi (sand fly) females, release rate per chemical (1-35 mg/day); for Number of mosquitoes in each arm: Repellent / Number of mosquitoes in each arm: Blank / Number of mosquitoes in each arm: Bottom: 10 min; for Number of mosquitoes in each arm: Blank / Number of mosquitoes in each arm: Bottom: Phlebotomus papatasi females, release rate per chemical
Outline: as §2

[4] = FIG. 13, egg powder alone 76 females
[5] = FIG. 13, egg powder alone 95 males
[6] = 10 μg/cm^2, DEET values are the positive control run with the chemical
[7] = FIG. 12, egg powder alone 35 females
[8] = FIG. 12, egg powder alone 68 males

Row | SMILES | spatial repellency, in words [1] | female house flies per trap (houseflies; [4]) [house flies per trap] | male house flies per trap (houseflies; [5]) | repellency against houseflies, in words (houseflies) | % of biting (±SE) (N = 3) (Anopheles stephensi; [6]) | % of biting (±SE) (N = 3) (Anopheles stephensi; 100 μg/cm^2) | % of biting (±SE) (N = 3) (Anopheles stephensi; 500 μg/cm^2) [a %] | % of biting (±SE) (N = 3) (Anopheles stephensi; 1000 μg/cm^2) [a %] | % of biting (±SE) (N = 3) (Aedes aegypti [2]; [6]) | % of biting (±SE) (N = 3) (Aedes aegypti [2]; 100 μg/cm^2) | % of biting (±SE) (N = 3) (Aedes aegypti [2]; 500 μg/cm^2) [a %] | % of biting (±SE) (N = 3) (Aedes aegypti [2]; 1000 μg/cm^2) [a %] | Number of mosquitoes in each arm: Blank (Aedes aegypti [3]) | Number of mosquitoes in each arm: Bottom (Aedes aegypti [3]) | Number of mosquitoes in each arm: Repellent (Aedes aegypti [3]) | SAI (Spatial Activity Index) (Aedes aegypti [3]) | SAI (Spatial Activity Index) (Phlebotomus papatasi) | Number of mosquitoes in each arm: Repellent (Phlebotomus papatasi) | Number of mosquitoes in each arm: Blank (Phlebotomus papatasi) | Number of mosquitoes in each arm: Bottom (Phlebotomus papatasi) | other results
1 | C=C1C2CCC3[C@H]2C(C)(C)CCC[C@]13C (single isomer, unassigned; (+)) [(+)-Longifolene] | showed spatial repellency effects | 4 | one | strongest repellent against houseflies | 53 ± 7c % | 33 ± 7bc % | 0 ± 0 | 0 ± 0 | 53 ± 7c % | 33 ± 13bc % | 0 ± 0 | 0 ± 0 | 20 | 37 | 5 | 0.60 | 0.55 | 5 | 17 | 41 | –
2 | C=C1CC/C=C(/C)CC[C@@H]2[C@@H]1CC2(C)C [Isocaryophyllene, isocaryophyllene] | showed spatial repellency effects | – | – | – | 33 ± 13b % | 7 ± 7a % | 0 ± 0 | 0 ± 0 | 33 ± 7b % | 0 ± 0a % | 0 ± 0 | 0 ± 0 | 35 | 31 | 8 | 0.63 | 0.23 | 40 | 64 | 34 | female house flies per trap (houseflies; [7]): 15 house flies per trap; male house flies per trap (houseflies; [8]): 14 house flies per trap
3 | C=C1CC/C=C(\C)CC[C@@H]2[C@@H]1CC2(C)C [β-Caryophyllene, β-caryophyllene] | showed spatial repellency effects | 10 | two | effective housefly repellents | 47 ± 18bc % | 40 ± 12bc % | 0 ± 0 | 7 ± 7 | 40 ± 12b % | 33 ± 24b % | 0 ± 0 | 0 ± 0 | 20 | 40 | 6 | 0.54 | 0.57 | 9 | 33 | 25 | number of house flies per trap (houseflies; egg powder attractant plus repellent, FIG. 11, egg powder alone 44): 3.5 house flies per trap; female house flies per trap (houseflies; [7]): 12 house flies per trap; male house flies per trap (houseflies; [8]): six
